Usually IC50 stands for the midpoint of a concentration-inhibition curve. As usually defined, the bioavailability is dose-corrected exposure relative to a reference, in per cent. As a reminder, the AUC(0-inf) is the area under the concentration-time curve extrapolated to infinity. Lower therefore signals low exposure. One may read the Cmax as the maximum level reached in the sampled fluid or tissue. What is called Tmax is the time at which the peak concentration occurs. For orientation: clearance means the volume of plasma or blood freed of the substance per unit of time. A low value points to a low capacity for elimination. As usually defined, the half-life is the time needed for the level to fall by half in the phase considered. Read a high half-life as slow loss.

SMILES strings stand for the structures. Read-outs that look alike come from different tables or passages of the source.

The test system of data set [1] is hepatitis B surface antigen (HBsAg). As to the kind of experiment: Determination of hepatitis B surface antigen (HBsAg) in HepG2.2.15 cell supernatant. The settings on record: Hepatitis B virus, HepG2.2.15, 96 h, read-out: HBsAg inhibitory activity IC50. It counts as cell-based, hepatitis B virus (HepG2.2.15 cells). How it is done:
(§1) The full genome of HBV was inserted into an […] cell, which could therefore express HBV continuously (Sells et al, Proc Natl Acad Sci USA. 1987 February; 84 (4):1005-9). The culture condition was DMEM medium containing 10% serum and […] G418. Cells were placed in an incubator containing 5% CO2 and cultured at 37° C.
HepG2.2.15 cells were seeded into a 96-well culture plate at a density of 3×10^4 cells/well. On the next day, the drug dissolved in DMSO was subjected to a 5-fold dilution and then added to the cells. 0.5% DMSO was added separately as control. The supernatant was collected after 4 days of drug action, and the content of hepatitis B surface antigen was determined.
The determination of hepatitis B surface antigen was carried out by using a kit for quantitative determination of hepatitis B virus surface antigen (chemiluminescence method). The specific operations were as follows. 50 μL cell culture supernatant was taken and transferred to the assay plate. 50 μL of enzyme-linked reagent was added thereto and the assay plate was sealed. Incubation was carried out at room temperature for 1 hour. Afterwards, the assay plate was washed six times with PBS, and finally, the residual liquid was removed by shaking the plate. 25 μL of substrates A and B were added respectively, and the determination was conducted by using a microplate reader (Tecan Infinite® F200) after ten minutes of reaction. IC50 was calculated after fitting the dose-response curve.

The subject of data set [2] is HBV DNA. Description: Determination of HBV DNA in HepG2.2.15 cell supernatant by qPCR. It counts as cell-based, hepatitis B virus (HepG2.2.15 cells). The settings on record: Hepatitis B virus, 168 h, HepG2.2.15 cells, supernatant after a total of 7 days of drug action, read-out: Inhibitory activity against HBV DNA IC50. How it is done: as §1
HepG2.2.15 cells were seeded into a 96-well culture plate at a density of 4×10^4 cells/well. After 4 hours, the drug dissolved in DMSO was subjected to a 4-fold dilution and then added to cells. 0.5% DMSO was added separately as control. On the 4th day of drug action, the original supernatant was removed and then the drug was added thereto again. The supernatant was collected after a total of 7 days of drug action and treated with lysis buffer. The determination of hepatitis B DNA was carried out by real-time fluorescence-based quantitative polymerase chain reaction (qPCR). After the completion of the qPCR, data were exported from the instrument and analyzed, and IC50 indicating antiviral activity was calculated after fitting the dose-response curve.
(Real-time PCR tracks product formation cycle by cycle.)

Data set [3] can be described thus: Pharmacokinetic experiments in ICR mice (plasma). It counts as in vivo. Conditions: for AUC(0-t): read-out: AUC0-12. How it is done: Multiple compounds in the Examples of the present disclosure were administered to ICR mice to conduct pharmacokinetic experiments. A single intravenous injection (with a dose of 2 mg/kg) and a single oral administration (with a dose of 10 mg/kg) were administered respectively. Blood was respectively collected prior to administration and 5 minutes, 15 minutes, 30 minutes, 1 hour, 2 hours, 4 hours, 8 hours, 12 hours and 24 hours after administration, and the concentration of the test compound in plasma was determined. Plasma pharmacokinetic data of the control compound (obtained from Example 28 in patent WO2018130152 A1) and the compounds of Examples 10 and 19 in the present disclosure in mice were as shown in the following Table 5 to Table 7.

The mark [4] stands for this setting: mouse, single intravenous injection 2 mg/kg, plasma.
[5] abbreviates: mouse, single oral administration 10 mg/kg, plasma.

On to `COCc1ncc(-c2cc3c(cc2OC)-c2cc(=O)c(C(=O)O)cn2C(C(C)(C)C)C3)s1` (stereo not shown) [Example 10, 6-tert-butyl-10-methoxy-9-[2-(methoxymethyl)thiazol-5-yl]-2-oxo-6,7-dihydro-2H-pyrido[2,1-a]isoquinoline-3-carboxylic Acid], for which the IC50 in data set [1] amounted to 0.2 nM. Further, in data set [2], the IC50 came to 0.13 nM. Moreover, the bioavailability in data set [3] (mouse, plasma, oral 10 mg/kg vs intravenous 2 mg/kg, read-out: F (bioavailability)) was 33.9%. Moreover, in data set [3] (setting [4]), the AUC(0-inf) was 804 ng·h/mL, the Cmax turned out to be 423 ng/mL, the Tmax was 0.08 h and the clearance was 41.4 mL/min/kg. Further, in data set [3] (setting [4]), the half-life was 1.9 h and the AUC(0-t) came to 796 ng·h/mL. Further, the Vd in data set [3] (mouse, single intravenous injection 2 mg/kg, plasma, read-out: Vss) turned out to be 5.42 L/kg. In data set [3] (setting [5]), the AUC(0-inf) worked out at 1400 ng·h/mL, the maximum concentration (Cmax) worked out at 458 ng/mL, the Tmax is 0.5 h and the half-life is 2.6 h. The AUC(0-t) in data set [3] (setting [5]) was 1350 ng·h/mL. For the same compound, the “plasma exposure compared with the control compound” value in data set [3] (same dose, after intravenous injection and oral administration) is reported as “significantly higher”.

For the origin of these results see US20220081434A1, “DIHYDROISOQUINOLINE COMPOUND” (SUZHOU ARK BIOPHARMACEUTICAL CO., LTD., priority 2019, published 2022).
